Data taken from ChEMBL document CHEMBL1201862, “PubChem BioAssay data set” (2004).
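Following 48 hours of exposure in 96-well plates, responses at five concentrations were used to interpolate endpoints linearly. Abbreviation: GI50, concentration required for 50% inhibition of growth.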 Activity calls are given as the source filed them. Cut-off read from the data, not from the text of the source: active = GI50 up to about 1.1 µM and inactive = higher.

Experiments:
Assay in all cases: NCI anticancer screen, dose series, 48 h
[1] = system: UO-31
[2] = system: SN12C
[3] = system: 786-0
[4] = system: HCC 2998
[5] = system: U-251
[6] = system: CAKI-1
[7] = system: M14
[8] = system: RPMI-8226
[9] = system: OVCAR-4
[10] = system: OVCAR-5
[11] = system: OVCAR-8
[12] = system: SF-295
[13] = system: NCI-H23
[14] = system: UACC-257
[15] = system: NCI-H226
[16] = system: IGROV-1
[17] = system: SR

Measured: GI50

COc1cccc(Cc2c3cc(OC)ccc3cc[n+]2C)c1
inactive: [1] > 100 µM | [2] 32.6 µM | [3] > 100 µM | [4] 87.9 µM | [5] 53.2 µM | [6] > 100 µM | [7] 67.5 µM | [8] 24.7 µM | [9] 58.5 µM | [10] > 100 µM | [11] 73.6 µM | [12] > 100 µM | [13] 26.6 µM | [14] 21.4 µM

NC(CCCC(N)P(=O)(O)O)P(=O)(O)O (configuration not stated)
inactive: [1] > 100 µM | [2] > 100 µM | [3] > 100 µM | [4] > 100 µM | [5] > 100 µM | [15] > 100 µM | [6] > 100 µM | [16] > 100 µM | [7] > 100 µM | [8] > 100 µM | [11] > 100 µM | [12] > 100 µM | [13] > 100 µM | [14] > 100 µM

N#Cc1cccc(N2C(=O)c3ccc(C(=O)c4ccc5c(c4)C(=O)N(c4cccc(C#N)c4)C5=O)cc3C2=O)c1
inactive: [1] > 100 µM | [2] > 100 µM | [3] 64.4 µM | [5] 35.8 µM | [15] > 100 µM | [6] > 100 µM | [16] > 100 µM | [7] > 100 µM | [8] > 100 µM | [9] > 100 µM | [10] > 100 µM | [11] > 100 µM | [12] > 100 µM | [13] > 100 µM | [14] > 100 µM

C=C=C[P+](c1ccccc1)(c1ccccc1)c1ccccc1
inactive: [1] 35.2 µM | [2] 3.78 µM | [3] 5.02 µM | [17] 21.3 µM | [4] 42.6 µM | [5] 3.56 µM | [16] 31.5 µM | [7] 6.05 µM | [8] 1.55 µM | [9] 21.9 µM | [11] 3.13 µM | [14] 7.06 µM

O=C(c1ccc(NCN2C(=O)CCC2=O)cc1)c1ccc(NCN2C(=O)CCC2=O)cc1
inactive: [1] > 100 µM | [2] > 100 µM | [3] > 100 µM | [4] > 100 µM | [5] > 100 µM | [16] > 100 µM | [7] > 100 µM | [8] 20.4 µM | [9] > 100 µM | [10] > 100 µM | [11] > 100 µM | [12] > 100 µM | [13] > 100 µM | [14] 27.7 µM

Brc1ccc(C[N+]23CN4CN(CN(C4)C2)C3)cc1
inactive: [1] 50.5 µM | [2] 24 µM | [3] 30.6 µM | [17] > 10 µM | [4] 47.1 µM | [5] 69.3 µM | [16] > 100 µM | [7] 16.9 µM | [8] 20.4 µM | [11] 28.3 µM | [12] > 100 µM | [13] 29.1 µM | [14] 30.5 µM

COc1cc2c(cc1O)[C@H](C)C(c1ccc(Cl)cc1)O2 (some centres not stated)
inactive: [1] 24.4 µM | [3] 17.1 µM | [4] 18.5 µM | [5] 19.1 µM | [15] 24.9 µM | [6] 11.6 µM | [16] 22.5 µM | [7] 22.2 µM | [8] 6.34 µM | [9] 32.1 µM | [10] 25.4 µM | [11] > 10 µM | [12] 31 µM | [13] 21 µM | [14] 19.8 µM

CN(C)[C@@H]1C(O)=C(C(N)=O)C(=O)[C@@]2(O)C(O)=C3C(=O)c4c(O)cccc4C[C@H]3C[C@@H]12
inactive: [1] 1.87 µM | [2] 3.44 µM | [3] 2.31 µM | [17] 2.56 µM | [4] 1.78 µM | [5] 2.17 µM | [6] 1.98 µM | [16] 2.1 µM | [7] 1.99 µM | [8] 2.17 µM | [9] 1.68 µM | [10] 2.09 µM | [11] 2.89 µM | [12] 1.7 µM | [13] 2 µM

CC1C[C@@H]2C(=O)NC(=O)[C@@H]2c2c1c1ccccc1n2C (some centres not stated)
inactive: [1] > 100 µM | [2] > 100 µM | [3] > 100 µM | [4] > 100 µM | [5] > 100 µM | [15] > 100 µM | [6] > 100 µM | [16] > 100 µM | [7] > 100 µM | [8] > 100 µM | [11] > 100 µM | [12] > 100 µM | [13] > 100 µM | [14] > 100 µM

COc1nc(=O)n(COC(CO)CN2C(=O)c3ccccc3C2=O)cc1Cc1cccc(OCc2ccccc2)c1 (configuration not stated)
inactive: [1] 16.3 µM | [2] 22 µM | [3] > 10 µM | [4] 20.7 µM | [5] 21.9 µM | [15] 17.4 µM | [16] 24.8 µM | [7] 20.4 µM | [8] 18.6 µM | [9] 21.8 µM | [11] 34.5 µM | [12] 22.1 µM | [13] 27.2 µM

CC12CCC(=O)N1[C@@H](c1ccccc1)[C@@H](c1ccccc1)O2 (some centres not stated)
inactive: [1] > 100 µM | [2] > 100 µM | [3] > 100 µM | [4] > 100 µM | [15] > 100 µM | [6] > 100 µM | [16] > 100 µM | [7] > 100 µM | [9] > 100 µM | [10] > 100 µM | [11] > 100 µM | [12] > 100 µM | [14] > 100 µM

CCOC(=O)Cn1c(=O)n(C)c(=O)c2[nH]cnc21
inactive: [1] > 100 µM | [2] > 100 µM | [3] > 100 µM | [17] > 100 µM | [5] > 100 µM | [6] > 100 µM | [16] > 100 µM | [7] > 100 µM | [8] > 100 µM | [11] > 100 µM | [13] > 100 µM

O=C1CC(O)(c2ccccc2)C(c2ccccc2)=C1c1ccccc1 (configuration not stated)
inactive: [2] 38.6 µM | [3] 45 µM | [4] 57.1 µM | [6] 31.3 µM | [16] 44 µM | [7] 35.4 µM | [8] 20.7 µM | [9] 34.1 µM | [10] > 100 µM | [11] 47 µM | [12] 32.4 µM | [13] 35.9 µM | [14] 31.5 µM

CN1c2ccccc2N(C)C2C1N(C)c1ccccc1N2C (configuration not stated)
inactive: [1] 31.6 µM | [2] 20 µM | [3] 32.9 µM | [4] 9.73 µM | [5] 26.1 µM | [15] 23.2 µM | [6] 15.1 µM | [16] 20.7 µM | [7] 18.2 µM | [8] 5.11 µM | [9] 26 µM | [10] 59.3 µM | [11] 18.6 µM | [12] 31.3 µM | [13] 16.8 µM | [14] 6.67 µM
